Measurements reported in patent publication US4311645A, “Synthesis of SRS-active compounds” (Hoffmann-La Roche Inc., priority 1980, dated 1982).
Where a name gives a salt, the structure may show the parent alone. Read-outs that look alike come from different tables or passages of the source.

Legend:
Compound E = assay: Inhibition of contraction of guinea pig ileum induced by Compound E; format: cell-based; conditions: Cavia porcellus
natural SRS-A = assay: Inhibition of contraction of guinea pig ileum induced by natural SRS-A; format: cell-based; conditions: Cavia porcellus; read-out: IC50 against natural SRS-A
Experimental: (§1) SRS-A was assayed utilizing the procedure described by Orange and Austen, J. Immunol. 10, 105 (1969) as follows: a 1.5 cm segment of ileum was removed from male guinea pigs weighing from 250 to 300 grams. The segment of ileum was suspended in a 10 ml organ bath containing Tyrodes solution. The ileum was attached to a strain gauge transducer and contractions were recorded on a strip chart recorder. The bath contained 10^-6 M atropine sulfate to block contractions which might be caused by acetylcholine and 10^-6 M pyrilamine maleate to block histamine-induced contractions. The bath was maintained at 37° C. and gassed with a mixture of 95% O2 and 5% CO2. The concentration of SRS-A in the filtrate obtained by challenging lung tissue with egg albumin was determined by comparing the contraction solicited by a given volume of the filtrate with the contraction elicited by […] of histamine (in the absence of pyrilamine maleate). One unit of SRS-A is equivalent to that quantity which will give the same contraction as this amount of histamine. […] After standardization, this SRS-A was stored in small aliquots at -80° C. for further use. […]
(§2) The assay was carried out as described in Example 23. […] The difference in the level of the contraction obtained in the absence and presence of varying concentrations of Compound I was determined. […]

Compound B = assay: Inhibition of contraction of guinea pig ileum induced by Compound B; format: cell-based; conditions: Compound B at its EC50, n=1, extrapolated from graph
Experimental: as §1, §2

guinea pig ileum = assay: SRS-A activity: contraction of isolated guinea pig ileum (bioassay); format: cell-based; conditions: read-out: EC50 (concentration giving 50% of the maximal contraction of the ileum produced by natural SRS-A), 37° C, atropine sulfate 10^-6 M and pyrilamine maleate 10^-6 M in bath, average ± S.E., n = 2-5 ileums
Experimental: SRS-A was assayed utilizing the procedure described by Orange and Austen, J. Immunol. […] The segment of ileum was suspended in a 10 ml organ bath containing Tyrodes solution. The ileum was attached to a strain gauge transducer and contractions were recorded on a strip chart recorder. The bath contained 10^-6 M atropine sulfate to block contractions which might be caused by acetylcholine and 10^-6 M pyrilamine maleate to block histamine-induced contractions. The bath was maintained at 37° C. and gassed with a mixture of 95% O2 and 5% CO2. The concentration of SRS-A in the filtrate obtained by challenging lung tissue with egg albumin was determined by comparing the contraction solicited by a given volume of the filtrate with the contraction elicited by […] of histamine (in the absence of pyrilamine maleate). One unit of SRS-A is equivalent to that quantity which will give the same contraction as this amount of histamine. […] After standardization, this SRS-A was stored in small aliquots at -80° C. for further use.

[1] = background, literature; cited from earlier work

`CCCCCC#CCC#C/C=C/C=C/[C@H]1O[C@@H]1CCCC(=O)OC` (relative stereo) [(R,S) (All E)-3-(1,3-tetradecadien-5,8-diynyl)-trans-oxiranebutanoic acid methyl ester] showed an IC50 (Compound E; Example 26, SRS-A active compound used: Compound E, n=1, read-out: IC50 (antagonist against synthetic Compound E)) of 10000 nM.

For `CCCc1c(OCC(O)COc2ccc3c(=O)cc(C(=O)O)oc3c2CCC)ccc(C(C)=O)c1O` (centres unmarked) [Compound I, 7-[3-(4-acetyl-3-hydroxy-2-propylphenoxy)-2-hydroxypropoxy]-4-oxo-8-propyl-4H-benzopyran-2-carboxylic acid], the IC50 (natural SRS-A) was 37 nM, the IC50 (Compound E; read-out: IC50 against Compound E) was 40 nM and the IC50 (Compound B; Cavia porcellus, read-out: IC50 against Compound B, 3 min preincubation) was 35 nM. The IC50 (Compound B; read-out: IC50 against Compound B, 3 min preincubation) was 40 nM.

`CCCCCC#CCC#C/C=C/C=C/[C@@H](SC[C@H](N)C(=O)O)[C@@H](O)CCCC(=O)O` [D, (5S,6R) (E,E)-S-(5-hydroxy-1-hydroxy-1-oxoeicosa-7,9-dien-11,14-diyn-6-yl)-L-cysteine mono ammonium salt] gave an EC50 (guinea pig ileum; Cavia porcellus) of 1100 nM.

In the case of `CCCCCC=CCC=CC=CC=CC(SCC(N)C(=O)O)C(O)CCCC(=O)O` (centres unmarked) [compound obtained by Samuelsson], the SRS-A activity [1] is listed as “found to have SRS-A activity”.

Compound “(5R,6S) (E,E,Z,Z)-S-(5-hydroxy-1-methoxy-1-oxoeicosa-7,9,11,14-tetraen-6-yl)-L-cysteine mono ammonium salt” has an EC50 (guinea pig ileum) of 28 nM.
